In US12616201B2, “Herbicidal compositions comprising isoxaflutole” (BASF SE, priority 2024, dated 2026):

Legend:
Amaranthus retroflexus = experiment: Post-emergence application in field trials, AMARE; type: in vivo; conditions: 7 DAT
Description: (§1) In the examples below, using the method of S. R. Colby (1967) “Calculating synergistic and antagonistic responses of herbicide combinations”, Weeds 15, p. 22ff., the value E, which is expected if the activity of the individual active compounds is only additive, was calculated:
(§2) [formula] • where • X=percent activity using active herbicide A at an application rate a; • Y=percent activity using active herbicide B (i.e. isoxaflutole) at an application rate b; • E=expected activity (in %) by A+B at application rates a+b.
(§3) If the value found experimentally is higher than the value E calculated according to Colby, a synergistic effect is present.
(§4) On field test sites, natural weed infestation or seeded weeds were treated post-emergence of the weeds.
(§5) In the field trials, the weeds were treated as indicated below.
(§6) In the following experiments, the herbicidal activity for the individual herbicidal compositions (solo and mixture applications) was assessed at the indicated days after treatment (DAT). The assessments for the damage on undesired weeds caused by the composition was carried out using a scale from 0 to 100%, compared to the untreated control plants. Here, 0 means no damage and 100 means complete destruction of the plants.
(§7) Herbicide A-1 and isoxaflutole (240 g/l SC, Balance Flexx®) were, together with addition of 0.25 v/v % MSO (methylated sed oil) as adjuvant, formulated in water as distribution medium (water volume 200 l/ha) and sprayed with commercial flat fan nozzles.
(§8) Herbicide A-1, isoxaflutole (240 g/l SC), saflufenacil (342 g/l) and pyroxasulfone were, together with addition of 0.25 v/v % MSO (methylated sed oil) as adjuvant, formulated in water as distribution medium (water volume 200 l/ha) and sprayed with commercial flat fan nozzles.

Chenopodium album = experiment: Post-emergence application in field trials, CHEAL; type: in vivo; conditions: Table 5.22; 7 DAT; height 10-25 cm; C-19 70 g ai/ha
Description: as §1, §2, §3, §4, §5
In the following experiments, the herbicidal activity for the individual herbicidal compositions (solo and mixture applications) was assessed at the indicated days after treatment (DAT). The assessments for the damage on undesired weeds caused by the composition was carried out using a scale from 0 to 100%, compared to the untreated control plants. Here, 0 means no damage and 100 means complete destruction of the plants. […]

Echinochloa crus-galli = experiment: Post-emergence application in field trials, ECHCG; type: in vivo
Description: as §1, §2, §3, §4, §5, §6
(§9) Herbicide A-1 and isoxaflutole (240 g/l SC) were, together with addition of 0.25 v/v % MSO (methylated sed oil) as adjuvant, formulated in water as distribution medium (water volume 200 l/ha) and sprayed with commercial flat fan nozzles.
as §7
(§10) Herbicide A-1, isoxaflutole (240 g/l SC) and saflufenacil (342 g/l) were, together with addition of 0.25 v/v % MSO (methylated sed oil) as adjuvant, formulated in water as distribution medium (water volume 200 l/ha) and sprayed with commercial flat fan nozzles.
as §8

Lolium multiflorum = experiment: Post-emergence application in field trials, LOLMU; type: in vivo
Description: as §1, §2, §3, §4, §5, §6, §8

Zea mays = experiment: Post-emergence application in field trials, ZEAMX; type: in vivo
Description: as §1, §2, §3, §4, §5, §6, §9, §7, §10, §8

HORVW = experiment: Post-emergence application in field trials, HORVW; type: in vivo, Hordeum vulgare
Description: as §1, §2, §3, §4, §5, §6, §8

[1] = Table 5.23, 21 DAT, height 20-25 cm, C-19 70 g ai/ha

Cn1nc(C(F)(F)F)c(CS(=O)(=O)C2=NOC(C)(C)C2)c1OC(F)F [C-19, pyroxasulfone]
% herbicidal activity (Amaranthus retroflexus; Table 5.22, height 8-20 cm, C-19 70 g ai/ha): 10% | % herbicidal activity (Amaranthus retroflexus; Table 5.4, AMARE height 8-20 cm, 70 g ai/ha): 10% | % herbicidal activity (Chenopodium album): 10% | % herbicidal activity (Echinochloa crus-galli; Table 5.23, 21 DAT, height 15-20 cm, C-19 70 g ai/ha): 40% | % herbicidal activity (Echinochloa crus-galli; Table 5.24, 28 DAT, height 15-20 cm, C-19 70 g ai/ha): 30% | % herbicidal activity (Echinochloa crus-galli; Table 5.4, ECHCG height 15-20 cm, 7 DAT, 70 g ai/ha): 20% | % herbicidal activity (Lolium multiflorum; Table 5.1, LOLMU height 20-25 cm, 7 DAT, 70 g ai/ha): 20% | % herbicidal activity (Lolium multiflorum; Table 5.22, 7 DAT, height 20-25 cm, C-19 70 g ai/ha): 20% | % herbicidal activity (Lolium multiflorum; [1]): 40% | % herbicidal activity (Lolium multiflorum; Table 5.4, LOLMU height 20-25 cm, 7 DAT, 70 g ai/ha): 20% | % herbicidal activity (Zea mays; Table 5.10, 7 DAT, height 25-30 cm, C-19 70 g ai/ha): 5% | % herbicidal activity (Zea mays; Table 5.22, 7 DAT, height 25-30 cm, C-19 70 g ai/ha): 5% | % herbicidal activity (Zea mays; Table 5.23, 21 DAT, height 25-30 cm, C-19 70 g ai/ha): 4% | % herbicidal activity (Zea mays; Table 5.24, 28 DAT, height 25-30 cm, C-19 70 g ai/ha): 0% | % herbicidal activity (Zea mays; Table 5.4, ZEAMX height 25-30 cm, 7 DAT, 70 g ai/ha): 5% | % herbicidal activity (Zea mays; Table 5.5, ZEAMX height 25-30 cm, 21 DAT, 70 g ai/ha): 4% | % herbicidal activity (Zea mays; Table 5.6, ZEAMX height 25-30 cm, 28 DAT, 70 g ai/ha): 0% | % herbicidal activity (HORVW; Table 5.2, HORVW height 20-25 cm, 21 DAT, 70 g ai/ha): 0% | % herbicidal activity (HORVW; [1]): 0% | % herbicidal activity (HORVW; Table 5.24, 28 DAT, height 20-25 cm, C-19 70 g ai/ha): 0% | % herbicidal activity (HORVW; Table 5.3, HORVW height 20-25 cm, 28 DAT, 70 g ai/ha): 0% | % herbicidal activity (HORVW; Table 5.5, HORVW height 20-25 cm, 21 DAT, 70 g ai/ha): 0% | % herbicidal activity (HORVW; Table 5.6, HORVW height 20-25 cm, 28 DAT, 70 g ai/ha): 0%
